Results from patent US20250236608A1, “EGFR INHIBITORS” (Blueprint Medicines Corporation, priority 2022, published 2025).

Columns and labels:
EGFR (d746-750) = EGFR (d746-750) (Homo sapiens (Human), UniProt P00533, DEL746-750); test: Biochemical EGFR inhibition assay, EGFR (d746-750); conditions: Caliper mobility shift; 1.0 mM ATP or ATP Km; read-out: Enz EGFR_Exon19-del746-750 IC50
EGFR L858R = EGFR L858R (Homo sapiens (Human), UniProt P00533, L858R); test: Biochemical EGFR inhibition assay, EGFR L858R; conditions: Caliper mobility shift; 1.0 mM ATP or ATP Km; read-out: Enz EGFR_L858R IC50
[1] = molecular target: pEGFR (Tyr1068) in PC-9 cells (Ex19Del) (Homo sapiens (Human), UniProt P00533, DEL746-750); test: PC-9 pEGFR AlphaLISA assay; assay type: cell-based; conditions: 4 hours incubation, p-EGFR (Tyr1068) AlphaLISA, read-out: Ext pEGFR_PC-9 Ex19Del IC50
Method in brief: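 First, cells settled overnight in 10% FBS medium. Second, a 10-point, 4-fold series of test agents was applied for 4 h at 37° C. Third, lysates were probed with AlphaLISA acceptor and donor beads, incubated overnight in the dark. Last, IC50 was taken from the dose-response.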

Chain of EGFR (d746-750) (P00533 other isoform, or with tags, fused parts or gaps del 1-694/del 746-750 limits assumed): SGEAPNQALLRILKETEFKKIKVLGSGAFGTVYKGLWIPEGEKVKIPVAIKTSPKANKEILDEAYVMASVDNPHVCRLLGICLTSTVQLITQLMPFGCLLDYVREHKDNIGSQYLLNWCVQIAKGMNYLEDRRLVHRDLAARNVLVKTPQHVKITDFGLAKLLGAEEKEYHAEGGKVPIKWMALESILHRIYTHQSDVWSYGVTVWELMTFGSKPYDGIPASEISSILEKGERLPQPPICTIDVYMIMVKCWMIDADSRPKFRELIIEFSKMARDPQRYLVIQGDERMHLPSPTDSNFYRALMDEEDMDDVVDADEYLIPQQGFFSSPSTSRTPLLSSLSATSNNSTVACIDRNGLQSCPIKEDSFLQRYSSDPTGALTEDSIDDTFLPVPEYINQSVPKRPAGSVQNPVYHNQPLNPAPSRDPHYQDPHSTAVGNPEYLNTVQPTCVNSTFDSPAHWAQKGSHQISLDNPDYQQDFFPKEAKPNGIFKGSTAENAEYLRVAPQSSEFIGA
Chain of EGFR L858R (P00533 25-1210 L858R): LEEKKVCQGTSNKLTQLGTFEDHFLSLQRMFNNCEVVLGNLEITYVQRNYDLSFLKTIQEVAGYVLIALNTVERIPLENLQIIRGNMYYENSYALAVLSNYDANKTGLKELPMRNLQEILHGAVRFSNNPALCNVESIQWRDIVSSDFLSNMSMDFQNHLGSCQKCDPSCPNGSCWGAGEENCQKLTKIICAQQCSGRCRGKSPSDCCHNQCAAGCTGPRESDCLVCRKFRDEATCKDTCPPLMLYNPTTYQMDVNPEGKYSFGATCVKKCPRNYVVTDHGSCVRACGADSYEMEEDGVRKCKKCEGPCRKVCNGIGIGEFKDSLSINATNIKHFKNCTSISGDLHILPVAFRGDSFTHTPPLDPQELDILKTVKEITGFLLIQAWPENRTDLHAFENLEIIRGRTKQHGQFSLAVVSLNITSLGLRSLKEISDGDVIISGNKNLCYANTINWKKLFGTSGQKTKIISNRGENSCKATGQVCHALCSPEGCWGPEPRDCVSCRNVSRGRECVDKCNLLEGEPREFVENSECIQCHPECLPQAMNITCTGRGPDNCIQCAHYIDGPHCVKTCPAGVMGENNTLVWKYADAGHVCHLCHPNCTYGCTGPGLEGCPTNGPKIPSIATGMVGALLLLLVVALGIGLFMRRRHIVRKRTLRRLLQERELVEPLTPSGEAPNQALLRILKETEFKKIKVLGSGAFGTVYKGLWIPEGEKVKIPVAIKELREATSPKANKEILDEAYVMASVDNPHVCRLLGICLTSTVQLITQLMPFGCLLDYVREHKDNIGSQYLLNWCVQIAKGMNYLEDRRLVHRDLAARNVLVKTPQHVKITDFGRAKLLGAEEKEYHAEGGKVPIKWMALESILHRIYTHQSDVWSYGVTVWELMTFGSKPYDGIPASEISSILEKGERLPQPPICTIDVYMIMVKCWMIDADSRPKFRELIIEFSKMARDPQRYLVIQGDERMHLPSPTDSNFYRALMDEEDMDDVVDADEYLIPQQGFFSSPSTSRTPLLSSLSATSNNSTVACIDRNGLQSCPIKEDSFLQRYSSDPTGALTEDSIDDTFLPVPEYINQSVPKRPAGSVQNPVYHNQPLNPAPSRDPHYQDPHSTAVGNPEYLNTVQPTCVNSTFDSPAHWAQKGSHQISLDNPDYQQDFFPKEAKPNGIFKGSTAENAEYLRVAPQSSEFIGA
Chain of pEGFR (Tyr1068) in PC-9 cells (Ex19Del) (P00533 other isoform, or with tags, fused parts or gaps del 746-750): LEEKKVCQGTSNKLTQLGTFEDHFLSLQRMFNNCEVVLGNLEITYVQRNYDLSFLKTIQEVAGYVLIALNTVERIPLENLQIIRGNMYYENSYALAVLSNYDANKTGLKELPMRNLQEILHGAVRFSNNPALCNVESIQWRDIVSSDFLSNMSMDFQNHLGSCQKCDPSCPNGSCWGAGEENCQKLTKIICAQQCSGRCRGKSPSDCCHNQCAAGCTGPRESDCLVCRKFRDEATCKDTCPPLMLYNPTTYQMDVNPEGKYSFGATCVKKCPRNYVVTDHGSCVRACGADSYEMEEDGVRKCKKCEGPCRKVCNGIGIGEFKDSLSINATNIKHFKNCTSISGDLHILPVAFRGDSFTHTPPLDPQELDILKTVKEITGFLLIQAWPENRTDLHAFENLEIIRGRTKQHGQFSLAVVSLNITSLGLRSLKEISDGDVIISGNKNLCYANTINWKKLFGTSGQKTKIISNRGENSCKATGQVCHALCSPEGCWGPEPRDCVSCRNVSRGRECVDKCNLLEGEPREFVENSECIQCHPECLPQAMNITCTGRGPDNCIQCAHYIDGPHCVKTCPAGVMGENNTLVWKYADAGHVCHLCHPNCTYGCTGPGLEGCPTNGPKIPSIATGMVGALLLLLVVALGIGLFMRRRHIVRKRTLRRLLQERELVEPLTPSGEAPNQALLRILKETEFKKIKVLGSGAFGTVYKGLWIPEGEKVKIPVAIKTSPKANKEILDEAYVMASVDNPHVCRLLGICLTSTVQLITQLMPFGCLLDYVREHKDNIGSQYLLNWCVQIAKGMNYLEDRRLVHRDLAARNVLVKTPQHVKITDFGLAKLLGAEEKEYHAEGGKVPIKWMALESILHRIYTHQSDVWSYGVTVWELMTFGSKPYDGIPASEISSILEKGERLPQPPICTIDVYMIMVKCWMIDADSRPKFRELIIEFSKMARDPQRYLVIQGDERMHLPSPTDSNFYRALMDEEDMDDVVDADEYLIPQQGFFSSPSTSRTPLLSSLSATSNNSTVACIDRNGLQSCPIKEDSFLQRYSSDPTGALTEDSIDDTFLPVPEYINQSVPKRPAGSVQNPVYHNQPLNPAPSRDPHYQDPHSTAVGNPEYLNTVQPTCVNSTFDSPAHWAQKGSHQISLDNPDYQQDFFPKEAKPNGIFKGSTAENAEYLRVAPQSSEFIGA

Row | Compound | IC50 (EGFR (d746-750)) [nM] | IC50 (EGFR L858R) [nM] | IC50 [1] [nM]
1 | COc1cc2ncnc(-c3cn(C)nc3-c3ccccc3)c2cc1NC(=O)c1cccnc1C [Example 195, N-(7-methoxy-4-(1-methyl-3-phenyl-1H-pyrazol-4-yl)quinazolin-6-yl)-2-methylnicotinamide] | 1.6 | 3.8 | 5.9
2 | COc1cc2ncnc(-c3cn(C)nc3-c3ccccc3)c2cc1NC(=O)C1(c2cccnc2)CC1 [Example 216, N-(7-methoxy-4-(1-methyl-3-phenyl-1H-pyrazol-4-yl)quinazolin-6-yl)-1-(pyridin-3-yl)cyclopropane-1-carboxamide] | 0.9 | 2.1 | 3.8
3 | COC(=O)Nc1cc2c(-c3cn(C)nc3-c3ccccc3)ncnc2cc1OC [Example 157, methyl (7-methoxy-4-(1-methyl-3-phenyl-1H-pyrazol-4-yl)quinazolin-6-yl)carbamate] | 0.6 | 1 | 1
4 | COc1cc2ncnc(-c3cn(C)nc3-c3ccccc3)c2cc1NC(=O)c1ccccc1C [Example 197, N-(7-methoxy-4-(1-methyl-3-phenyl-1H-pyrazol-4-yl)quinazolin-6-yl)-2-methylbenzamide] | 0.8 | 1.8 | 2.5
5 | COc1cc2ncnc(-c3cn(C)nc3-c3ccccc3)c2cc1[C@@H](C)O (single isomer, unassigned) [Example 115, (R)-1-(7-methoxy-4-(1-methyl-3-phenyl-1H-pyrazol-4-yl)quinazolin-6-yl)ethan-1-ol or (S)-1-(7-methoxy-4-(1-methyl-3-phenyl-1H-pyrazol-4-yl)quinazolin-6-yl)ethan-1-ol] | 1.2 | 2.3 | 10.6
6 | CN1CCC(n2cc(-c3ccc4c(-c5cn(C)nc5-c5ccccc5)ncnc4c3)cn2)CC1 [Example 438, 4-(1-methyl-3-phenyl-1H-pyrazol-4-yl)-7-(1-(1-methylpiperidin-4-yl)-1H-pyrazol-4-yl)quinazoline] | 0.8 | 1.2 | 0.3
7 | COc1cc2ncnc(-c3cn(C)nc3-c3ccccc3)c2cc1-c1cccc2[nH]ncc12 [Example 143, 6-(1H-indazol-4-yl)-7-methoxy-4-(1-methyl-3-phenyl-1H-pyrazol-4-yl)quinazoline] | 1.7 | 4.5 | 3.2
8 | COc1cc2ncnc(-c3cn(C)nc3-c3ccccc3)c2cc1NC(=O)c1ccccc1N1CCNCC1 [Example 227, N-(7-methoxy-4-(1-methyl-3-phenyl-1H-pyrazol-4-yl)quinazolin-6-yl)-2-(piperazin-1-yl)benzamide] | 2.7 | 15.2 | 6.7
9 | COc1cc2ncnc(-c3cn(C)nc3-c3ccccc3)c2nc1NC(=O)C1(F)CCN(C)C1 (stereo not drawn) [Example 433, 3-fluoro-N-(7-methoxy-4-(1-methyl-3-phenyl-1H-pyrazol-4-yl)pyrido[3,2-d]pyrimidin-6-yl)-1-methylpyrrolidine-3-carboxamide] | 1.6 | 24.9 | 10.5
10 | COc1cc2ncnc(-c3cn(C)nc3-c3ccccc3)c2cc1NC(=O)C(C)(C)F [Example 350, 2-fluoro-N-(7-methoxy-4-(1-methyl-3-phenyl-1H-pyrazol-4-yl)quinazolin-6-yl)-2-methylpropanamide] | 1.5 | 3.1 | 4.4
11 | COc1cc2ncnc(-c3cn(C)nc3-c3ccc(F)cc3)c2nc1NC(=O)C12CC(N(C)C)(C1)C2 [Example 402, 3-(dimethylamino)-N-(4-(3-(4-fluorophenyl)-1-methyl-1H-pyrazol-4-yl)-7-methoxypyrido[3,2-d]pyrimidin-6-yl)bicyclo[1.1.1]pentane-1-carboxamide] | 1.3 | 3.1 | 3.8
12 | COc1cc2ncnc(-c3cn(C)nc3-c3ccccc3)c2cc1OC(=O)N1[C@H](C)CN(C)C[C@H]1C [Example 89, 7-methoxy-4-(1-methyl-3-phenyl-1H-pyrazol-4-yl)quinazolin-6-yl (2R,6R)-2,4,6-trimethylpiperazine-1-carboxylate] | 1.9 | 5.4 | 5.7
13 | COc1cc2ncnc(-c3cn(CC(F)F)nc3-c3ccccc3)c2cc1NC(=O)c1cccnc1 [Example 353, N-(4-(1-(2,2-difluoroethyl)-3-phenyl-1H-pyrazol-4-yl)-7-methoxyquinazolin-6-yl)nicotinamide] | 1.3 | 2.3 | 1.6
14 | COc1cc2ncnc(-c3cn(C)nc3-c3ccccc3)c2cc1OC1CCOC1 (stereo not drawn) [Example 11, 7-methoxy-4-(1-methyl-3-phenyl-1H-pyrazol-4-yl)-6-((tetrahydrofuran-3-yl)oxy)quinazoline] | 2.4 | 2.9 | 5.1
15 | COc1cc2ncnc(-c3cn(C)nc3-c3ccc(Cl)cc3)c2nc1NC(=O)C12CC(N(C)C)(C1)C2 [Example 474, N-{4-[3-(4-chlorophenyl)-1-methyl-1H-pyrazol-4-yl]-7-methoxypyrido[3,2-d]pyrimidin-6-yl}-3-(dimethylamino) bicyclo[1.1.1]pentane-1-carboxamide] | 2 | 5.6 | 3.6
16 | Cn1cc(-c2cc(F)c3c(-c4cn(C)nc4-c4ccccc4)ncnc3c2)cn1 [Example 439, 5-fluoro-7-(1-methyl-1H-pyrazol-4-yl)-4-(1-methyl-3-phenyl-1H-pyrazol-4-yl)quinazoline] | 0.4 | 0.7 | 1.7
17 | CCC(=O)Nc1cc2c(-c3cn(C4COC4)nc3-c3ccccc3)ncnc2cc1OC [Example 249, N-(7-methoxy-4-(1-(oxetan-3-yl)-3-phenyl-1H-pyrazol-4-yl)quinazolin-6-yl)propionamide] | 1.4 | 2.2 | 2.1
18 | COc1cc2ncnc(-c3cn(CC(F)F)nc3-c3ccccc3)c2nc1NC(=O)[C@H]1CCN1C [Example 391, (R)—N-(4-(1-(2,2-difluoroethyl)-3-phenyl-1H-pyrazol-4-yl)-7-methoxypyrido[3,2-d]pyrimidin-6-yl)-1-methylazetidine-2-carboxamide] | 1.3 | 2.5 | 0.7
19 | COc1cc2ncnc(-c3cn(C)nc3-c3ccccc3)c2cc1N1CCC[C@@H](O)C1 [Example 165, (R)-1-(7-methoxy-4-(1-methyl-3-phenyl-1H-pyrazol-4-yl)quinazolin-6-yl)piperidin-3-ol] | 1.7 | 3.4 | 10.2
20 | CCn1cc(-c2ncnc3cc(OC)c(NC(=O)c4cccnc4)cc23)c(-c2ccccc2)n1 [Example 332, N-(4-(1-ethyl-3-phenyl-1H-pyrazol-4-yl)-7-methoxyquinazolin-6-yl) nicotinamide] | 1.6 | 2.3 | 2.1
21 | CCn1cc(-c2ncnc3cc(OC)c(NC(=O)c4cnn(C(F)(F)F)c4)nc23)c(-c2ccccc2)n1 [Example 314, N-(4-(1-ethyl-3-phenyl-1H-pyrazol-4-yl)-7-methoxypyrido[3,2-d]pyrimidin-6-yl)-1-(trifluoromethyl)-1H-pyrazole-4-carboxamide] | 0.8 | 1.4 | 1.1
22 | COc1cc2ncnc(-c3cn(C)nc3-c3ccccc3)c2cc1NC(=O)[C@@H](C)CN(C)C (single isomer, unassigned) [Example 238, (S)-3-(dimethylamino)-N-(7-methoxy-4-(1-methyl-3-phenyl-1H-pyrazol-4-yl)quinazolin-6-yl)-2-methylpropanamide or (R)-3-(dimethylamino)-N-(7-methoxy-4-(1-methyl-3-phenyl-1H-pyrazol-4-yl)quinazolin-6-yl)-2-methylpropanamide] | 8.2 | 12 | 26
23 | CCn1cc(-c2ncnc3cc(OC)c(NC(=O)C45CC(C4)C5)nc23)c(-c2ccccc2)n1 [Example 315, N-(4-(1-ethyl-3-phenyl-1H-pyrazol-4-yl)-7-methoxypyrido[3,2-d]pyrimidin-6-yl)bicyclo[1.1.1]pentane-1-carboxamide] | 1.1 | 1.7 | 0.6
24 | COc1cc2ncnc(-c3cn(C)nc3-c3ccccc3)c2nc1O[C@H](C)c1cscn1 (single isomer, unassigned) [Example 49, (R)-4-(1-((7-methoxy-4-(1-methyl-3-phenyl-1H-pyrazol-4-yl)pyrido[3,2-d]pyrimidin-6-yl)oxy)ethyl)thiazole or (S)-4-(1-((7-methoxy-4-(1-methyl-3-phenyl-1H-pyrazol-4-yl)pyrido[3,2-d]pyrimidin-6-yl)oxy)ethyl)thiazole] | 0.6 | 1.3 | 1.2
25 | COc1cc2ncnc(-c3cn(C)nc3-c3ccccc3)c2cc1-c1cnc2c(ccn2C)c1 [Example 140, 7-methoxy-6-(1-methyl-1H-pyrrolo[2,3-b]pyridin-5-yl)-4-(1-methyl-3-phenyl-1H-pyrazol-4-yl)quinazoline] | 1.9 | 4.5 | 6.7
26 | COc1cc2ncnc(-c3cn(C)nc3-c3ccccc3)c2cc1NC(=O)c1c(F)cccc1F [Example 331, 2,6-difluoro-N-(7-methoxy-4-(1-methyl-3-phenyl-1H-pyrazol-4-yl)quinazolin-6-yl)benzamide] | 1 | 1.7 | 1.5
